Test results: paper PMC10466336, “Chemical Probe for Imaging of Polo-like Kinase 4 and Centrioles” (JACS Au, 2023)

Legend:
[1] = target: T1, 6xHis-tagged Plk4 kinase domain (KD) (Homo sapiens, UniProt O00444); experiment: Estimation of fluorescence increase (fluorogenicity) with Plk4 kinase domain versus BSA
T1 construct: Plasmids encoding fragments of Plk4 kinase domain (2-275) with 6xHis-tag were cloned in pET system vectors; made in house; host or cells: E. coli BL21 gold (DE3)
T1 sequence (O00444 2-275): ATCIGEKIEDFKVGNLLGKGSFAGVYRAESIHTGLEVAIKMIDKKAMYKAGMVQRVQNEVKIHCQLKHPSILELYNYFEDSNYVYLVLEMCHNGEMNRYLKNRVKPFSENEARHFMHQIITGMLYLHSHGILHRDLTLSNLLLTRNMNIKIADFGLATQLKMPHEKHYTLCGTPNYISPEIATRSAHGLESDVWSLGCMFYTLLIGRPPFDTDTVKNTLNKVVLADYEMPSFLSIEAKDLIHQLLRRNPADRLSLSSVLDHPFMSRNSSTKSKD
Source text: Moreover, we substituted the basic acetyl-piperazine nitrogen in compounds (1 and 2a) with an acetyl-piperidine, to avoid probe protonation and accumulation in endolysosomal compartments (Figure S1A, B).[23] This yielded a second generation of centrinone-based probes (compounds 2b–d). These probes were characterized first in vitro by measuring their fluorogenicity in the presence of the 6xHis-tagged Plk4 kinase domain (KD) (Table 1). […] Next, we measured the binding affinities of the probes to the Plk4 kinase domain via a competition binding assay based on fluorescence polarization. […]
1.3.5 Estimation of fluorescence increase
The probes were analysed as described in Lukinavičius et al. 2014 1. Briefly, SiR650 or SiR595- […]
purified Plk4 kinase domain (10 µM in 20 mM Tris, 200 mM NaCl at pH 7.5) or to a bovine serum albumin (BSA) (Sigma) solution (0.2 mg/mL in 20 mM Tris, 200 mM NaCl at pH 7.5). Final concentration of the probe was 3 µM. The samples were incubated for 1 h at 37 °C, and fluorescence was measured in a 96-well plate (Greiner Bio-One) on a plate reader (TECAN Spark® 20M).
Fluorescence emission was recorded from 570 nm to 750 nm for SiR595 probes, and 630 nm to 750 nm for SiR650 while exciting at 550 nm ± 10 nm for SiR595 probes and at 610 ± 10 nm for SiR650 probes.
A fluorescence excitation scan was recorded by measuring the emission at 660 ± 10 nm for SiR595 and 720 ± 10 nm for SiR650 probes, while exciting from 500 nm to 640 nm for SiR595 probes and from […]

[2] = target: T2, endogenous Plk4 in HeLa cells expressing Centrin1-GFP (Homo sapiens, UniProt O00444); experiment: Live- and fixed-cell confocal/STED imaging of endogenous Plk4; type: cell-based; details: one-step labeling, live cells
T2 construct: live cell imaging of endogenous Plk4; endogenous in cells; host or cells: HeLa cells stably expressing Centrin1-GFP
T2 sequence (O00444 1-970): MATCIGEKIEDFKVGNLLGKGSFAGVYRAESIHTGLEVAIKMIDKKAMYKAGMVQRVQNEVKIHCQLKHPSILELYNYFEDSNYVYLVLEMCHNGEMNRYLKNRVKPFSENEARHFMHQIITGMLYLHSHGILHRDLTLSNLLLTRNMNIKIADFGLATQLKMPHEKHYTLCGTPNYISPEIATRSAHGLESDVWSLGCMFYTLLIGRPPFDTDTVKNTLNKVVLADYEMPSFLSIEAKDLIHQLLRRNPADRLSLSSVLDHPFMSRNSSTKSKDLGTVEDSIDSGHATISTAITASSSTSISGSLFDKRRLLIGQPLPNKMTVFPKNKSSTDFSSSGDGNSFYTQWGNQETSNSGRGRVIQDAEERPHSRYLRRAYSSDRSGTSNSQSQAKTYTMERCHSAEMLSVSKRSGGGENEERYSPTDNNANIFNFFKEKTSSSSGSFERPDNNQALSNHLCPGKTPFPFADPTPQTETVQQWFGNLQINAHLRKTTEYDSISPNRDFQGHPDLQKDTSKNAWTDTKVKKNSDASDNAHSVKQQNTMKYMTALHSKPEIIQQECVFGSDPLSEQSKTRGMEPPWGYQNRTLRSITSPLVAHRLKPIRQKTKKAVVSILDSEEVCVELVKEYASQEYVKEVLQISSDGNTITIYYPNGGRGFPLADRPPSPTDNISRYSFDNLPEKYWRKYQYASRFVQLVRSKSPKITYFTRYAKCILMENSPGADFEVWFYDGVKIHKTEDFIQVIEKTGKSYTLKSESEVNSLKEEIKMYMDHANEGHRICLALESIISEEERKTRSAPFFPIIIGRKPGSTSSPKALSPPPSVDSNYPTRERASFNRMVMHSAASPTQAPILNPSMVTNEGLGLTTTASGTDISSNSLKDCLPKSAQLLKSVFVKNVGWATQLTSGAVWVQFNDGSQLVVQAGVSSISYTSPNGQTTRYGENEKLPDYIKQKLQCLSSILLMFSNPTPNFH

COc1c(Nc2cc(C)[nH]n2)nc(Sc2ccc(S(=O)(=O)Cc3cccc([N+](=O)[O-])c3F)cc2F)nc1N1CCC(CC(=O)NCCNC(=O)c2ccc(C(=O)O)c(C3=C4C=CC(=N)C=C4[Si](C)(C)c4cc(N)ccc43)c2)CC1 [2d]
increase in fluorescence upon binding ([1]; in presence of Plk4 KD versus BSA): 36 fold | FPIk4/FBSA ([1]; mean of F(+Plk4KD)/F(+BSA) and standard deviation, N = 3, probe 3 µM, 1 h 37 °C): 36 ± 1 | labeling of endogenous Plk4 in live HeLa cells [2]: failed to observe specific labeling
